# Source: patent publication US20250057819A1, “DRUG COMBINATIONS FOR INHIBITING CORONAVIRUS REPLICATION” (priority 2021, published 2025)
# pEC50, pIC50: −log10 of the molar value. Where a name gives a salt, the structure may show the parent alone. Read-outs that look alike come from different tables or passages of the source.
# How the values were obtained:
# rHCoVs-OC43 = assay: microbe, parasite or virus in culture; format: cell-based
# [1] = Cell viability assay (MTT) in HRT-18 cells; settings: human, CC50 (μM)
# HRT-18 cells = assay: Cell viability assay (MTT) in HRT-18 cells; settings: drug alone; HRT-18 cells, 48 h treatment, MTT
# SARS-CoV-2 = assay: microbe, parasite or virus in culture; format: cell-based; settings: Severe acute respiratory syndrome coronavirus 2, Huh7.5, 48 h; read-out: SARS-CoV-2 EC50
# [2] = Cell viability assay (MTT) in Huh7.5 cells; format: cell-based, human; settings: human, Huh7.5 cells, Huh7.5 (B), read-out: SARS-CoV-2 CC50
# Protocol: Cell viability was monitored by a mitochondrial activity test using methyl-thiazolyl-tetrazolium (MTT, Sigma). After 48 hours of drug treatment, cells were treated with 1 mg/ml of MTT during 3 hours at 37° C. The supernatants were removed and the MTT crystals were dissolved using DMSO and a shaker. The absorbance was read with a Tecan Spark at 570 nm with reference at 650 nm.
# Only the most promising molecules or those studied in synergy were tested in Calu3 cells.
# [3] = 48 h, drug 2 alone (fast synergy screening table), read-out: IC50
# [4] = drug 2 alone (fast synergy screening table), read-out: IC50
# [5] = drug alone, HRT-18 cells, MOI 0.025, 48 h treatment, decrease of Rluc, read-out: EC50
# [6] = drug 2 alone (fast synergy screening table)
# [7] = drug alone, HRT-18 cells, 48 h treatment, MTT
Structure (SMILES),pIC50 (rHCoVs-OC43; [3]),pIC50 (rHCoVs-OC43; [4]),pEC50 (rHCoVs-OC43; [5]),"CC50 at 48 h [1, 6]","CC50 at 48 h [1, 7]",other results
C=C1/C(=C\C=C2/CCC[C@]3(C)[C@@H]([C@H](C)CCCC(C)C)CC[C@@H]23)C[C@@H](O)C[C@@H]1O [Alfacalcidol],5.77,5.77,5.77,> 10 µM,> 10 µM,–
CCOC(=O)C1=C(COCCN)NC(C)=C(C(=O)OC)C1c1ccccc1Cl (centres unmarked) [Amlodipine benzenesulphonate],5.28,5.28,5.28,> 10 µM,> 10 µM,–
CCN(CC)Cc1cc(Nc2ccnc3cc(Cl)ccc23)ccc1O [Amodiaquine],5.92,5.92,5.92,> 10 µM,> 10 µM,–
CCN(CC)CCCC(C)Nc1ccnc2cc(Cl)ccc12 (centres unmarked) [Chloroquine],7.18,–,7.18,–,–,–
CN(C)CC/C=C1/c2ccccc2Sc2ccc(Cl)cc21 [Chlorprothixene],–,–,5.12,–,> 10 µM,–
CCCC(=O)O[C@]1(C(=O)CCl)[C@H](C)C[C@@H]2[C@@H]3CCC4=CC(=O)C=C[C@]4(C)[C@]3(F)C(=O)C[C@@]21C [Clobetasone butyrate],–,–,5.07,–,–,CC50 (HRT-18 cells): > 10 µM
CC(C)/N=c1\cc2n(-c3ccc(Cl)cc3)c3ccccc3nc-2cc1Nc1ccc(Cl)cc1 [Clofazimine],5.74,5.74,5.74,> 10 µM,> 10 µM,–
CCN(CC)CCOc1ccc(C(=C(Cl)c2ccccc2)c2ccccc2)cc1 [Clomiphene citrate],–,–,–,> 10 µM,> 10 µM,–
CN(C)CCCN1c2ccccc2CCc2ccc(Cl)cc21 [Clomipramine hydrochloride],–,–,–,–,> 10 µM,–
C#C[C@]1(O)CC[C@H]2[C@@H]3CCC4=Cc5oncc5C[C@]4(C)[C@H]3CC[C@@]21C [Danazol],6.00,6.00,6.00,> 10 µM,> 10 µM,pEC50 (SARS-CoV-2): 6.08; CC50 at 48 h [2]: > 10 µM
CN(C)[C@@H](CCOc1cccc2ccccc12)c1ccccc1 [Dapoxetine hydrochloride],–,–,5.33,–,> 10 µM,–
C[C@H]1O[C@@H](O[C@H]2[C@@H](O)C[C@H](O[C@H]3[C@@H](O)C[C@H](O[C@H]4CC[C@@]5(C)[C@H](CC[C@@H]6[C@@H]5CC[C@]5(C)[C@@H](C7=CC(=O)OC7)CC[C@]65O)C4)O[C@@H]3C)O[C@@H]2C)C[C@H](O)[C@@H]1O [Digitoxin],7.68,–,7.68,0.08 µM,0.08 µM,–
C[C@H]1O[C@@H](O[C@H]2[C@@H](O)C[C@H](O[C@H]3[C@@H](O)C[C@H](O[C@H]4CC[C@@]5(C)[C@H](CC[C@@H]6[C@@H]5C[C@@H](O)[C@]5(C)[C@@H](C7=CC(=O)OC7)CC[C@]65O)C4)O[C@@H]3C)O[C@@H]2C)C[C@H](O)[C@@H]1O [Digoxin],–,–,7.55,–,–,pIC50 (rHCoVs-OC43; 48 h): 7.55
OCCN(CCO)c1nc(N2CCCCC2)c2nc(N(CCO)CCO)nc(N3CCCCC3)c2n1 [Dipyridamole],–,–,5.39,–,> 10 µM,–
CCN(CC)C(=S)SSC(=S)N(CC)CC [Disulfiram],–,–,6.74,–,0.23 µM,–
COc1cc2nc(N3CCN(C(=O)C4COc5ccccc5O4)CC3)nc(N)c2cc1OC (centres unmarked) [Doxazosin mesylate],–,–,5.49,–,> 10 µM,–
CNCC[C@H](Oc1cccc2ccccc12)c1cccs1 [Duloxetine hydrochloride],–,–,–,–,> 10 µM,"pEC50 (rHCoVs-OC43; HRT-18, 48 h): 5.32"
Cn1cc(C2=C(c3cn(C4CCN(Cc5ccccn5)CC4)c4ccccc34)C(=O)NC2=O)c2ccccc21 [Enzastaurin hydrochloride],–,–,5.55,–,> 10 µM,–
CCCCCCCCc1ccc(CCC(N)(CO)CO)cc1 [Fingolimod hydrochloride],5.41,5.41,5.41,> 10 µM,10 µM,–
CCCCCCCCCC(=O)OC1(c2ccc(Cl)cc2)CCN(CCCC(=O)c2ccc(F)cc2)CC1 [Haloperidol decanoate],–,–,< 5.00,–,> 10 µM,–
Oc1c(Cl)cc(Cl)c(Cl)c1Cc1c(O)c(Cl)cc(Cl)c1Cl [Hexachlorophene],6.41,–,6.41,–,–,–
COC(=O)C1=C(C)NC(C)=C(C(=O)OCCN2CCN(C(c3ccccc3)c3ccccc3)CC2)C1c1cccc([N+](=O)[O-])c1 (centres unmarked) [Manidipine dihydrochloride],5.35,5.35,5.35,> 10 µM,> 10 µM,–
